# How the values were obtained:
# Assay type in all cases: cell-based
# [1] = test system: STAPHYLOCOCCUS AUREUS ATCC 6538P; assay: In vitro antibacterial activity, MIC, BHI agar dilution; conditions: S. aureus ATCC 6538P, 35-37° C., 20 to 24 hours, unit assumed
# [2] = test system: STAPHYLOCOCCUS AUREUS A5177; assay: as above; conditions: S. aureus A5177, unit assumed
# [3] = test system: STAPHYLOCOCCUS AUREUS A-5278; assay: as above; conditions: S. aureus A-5278, unit assumed
# [4] = test system: STAPHYLOCOCCUS AUREUS CMX 642A; assay: as above; conditions: S. aureus CMX 642A, unit assumed
# [5] = test system: STAPHYLOCOCCUS AUREUS NCTC10649M; assay: as above; conditions: S. aureus NCTC10649M, unit assumed
# [6] = test system: STAPHYLOCOCCUS AUREUS CMX 553; assay: as above; conditions: S. aureus CMX 553, unit assumed
# [7] = test system: STAPHYLOCOCCUS AUREUS 1775; assay: as above; conditions: S. aureus 1775, unit assumed
# [8] = test system: STAPHYLOCOCCUS EPIDERMIDIS 3519; conditions: S. epidermidis 3519; BHI agar; unit assumed
# [9] = test system: EN[…] ATCC 8043; assay: In vitro antibacterial activity, MIC, BHI agar dilution; conditions: E. faecium ATCC 8043, unit assumed
# Procedure, shortened: (§1)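 MIC was read visually as the lowest drug level with no growth, a slight haze or sparsely isolated colonies relative to a compound-free growth control. Organisms were spotted at 1:100 dilution (1:10 for slow-growing strains) onto Brain Heart Infusion agar containing serial compound dilutions and incubated 20 to 24 hours at 35-37° C.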
# [10] = test system: M[…] ATCC 4698; assay: as above; conditions: M. luteus ATCC 4698, unit assumed
# Procedure, shortened: as §1
# [11] = test system: M[…] ATCC 9341; assay: as above; conditions: M. luteus ATCC 9341, unit assumed
# Procedure, shortened: as §1
# [12] = test system: STR[…] 508; assay: as above; conditions: S. agalactiae CMX 508, unit assumed
# Procedure, shortened: as §1
# [13] = test system: STREPTOCOCCUS BOVIS A-5169; assay: as above; conditions: S. bovis A-5169, unit assumed
# [14] = test system: STREPTOCOCCUS PYOGENES EES61; assay: as above; conditions: S. pyogenes EES61, unit assumed
# [15] = test system: STREPTOCOCCUS PYOGENES 930; assay: as above; conditions: S. pyogenes 930, unit assumed
# [16] = test system: STREPTOCOCCUS PYOGENES PIU 2548; assay: as above; conditions: S. pyogenes PIU 2548, unit assumed
# [17] = test system: ESCHERICHIA COLI JUHL; conditions: E. coli JUHL; BHI agar; unit assumed
# [18] = test system: ESCHERICHIA COLI SS; assay: In vitro antibacterial activity, MIC, BHI agar dilution; conditions: E. coli SS, unit assumed
# [19] = test system: ESCHERICHIA COLI DC-2; assay: as above; conditions: E. coli DC-2, unit assumed
# [20] = test system: ESCHERICHIA COLI H560; assay: as above; conditions: E. coli H560, unit assumed
# [21] = test system: ESCHERICHIA COLI KNK 437; conditions: E. coli KNK 437; BHI agar; unit assumed
# [22] = test system: ENTEROBACTER AEROGENES ATCC 13048; assay: In vitro antibacterial activity, MIC, BHI agar dilution; conditions: E. aerogenes ATCC 13048, unit assumed
# [23] = test system: KLEBSIELLA PNEUMONIAE ATCC 8045; assay: as above; conditions: K. pneumoniae ATCC 8045, unit assumed
# [24] = test system: PROVIDENCIA STUARTII CMX 640; conditions: P. stuartii CMX 640; BHI agar; unit assumed
# [25] = test system: PSEUDOMONAS AERUGINOSA BMH10; assay: In vitro antibacterial activity, MIC, BHI agar dilution; conditions: P. aeruginosa BMH10, unit assumed
# [26] = test system: PSEUDOMONAS AERUGINOSA 5007; assay: as above; conditions: P. aeruginosa 5007, unit assumed
# [27] = test system: PSEUDOMONAS AERUGINOSA K799/WT; assay: as above; conditions: P. aeruginosa K799/WT, unit assumed
# [28] = test system: PSEUDOMONAS CEPACIA 296I; assay: as above; conditions: P. cepacia 296I, unit assumed
# [29] = test system: PSEUDOMONAS AERUGINOSA DPHD-5263; assay: as above; conditions: P. aeruginosa DPHD-5263, unit assumed
# [30] = test system: PSEUDOMONAS AERUGINOSA DPHD-2862; assay: as above; conditions: P. aeruginosa DPHD-2862, unit assumed
# [31] = test system: CANDIDA ALBICANS CCH 442; assay: as above; conditions: C. albicans CCH 442, unit assumed
# [32] = test system: MYCOBACTERIUM SMEGMATIS ATCC 114; assay: as above; conditions: M. smegmatis ATCC 114, unit assumed
# [33] = test system: PSEUDOMONAS AERUGINOSA K799/61; assay: as above; conditions: P. aeruginosa K799/61, unit assumed
Structure (SMILES),MIC [1] [µg/mL],MIC [2] [µg/mL],MIC [3] [µg/mL],MIC [4] [µg/mL],MIC [5] [µg/mL],MIC [6] [µg/mL],MIC [7] [µg/mL],MIC [8] [µg/mL],MIC [9] [µg/mL],MIC [10] [µg/mL],MIC [11] [µg/mL],MIC [12] [µg/mL],MIC [13] [µg/mL],MIC [15] [µg/mL],MIC [16] [µg/mL],MIC [17] [µg/mL],MIC [18] [µg/mL],MIC [19] [µg/mL],MIC [20] [µg/mL],MIC [21] [µg/mL],further results
CC[C@H]1OC(=O)[C@H](C)C(=O)[C@H](C)[C@@H](O[C@@H]2O[C@H](C)C[C@H](N(C)C)[C@H]2O)[C@](C)(OC)C[C@@H](C)C2=NC[C@H](C)N3C(=O)O[C@@]1(C)[C@H]3[C@H]2C [Example 8],0.78,0.78,> 100,0.78,0.78,0.78,> 100,0.78,0.78,1.56,1.56,0.1,0.1,> 100,0.78,100,0.78,50,25,100,MIC [14]: 0.1 µg/mL; MIC [22]: 100 µg/mL; MIC [23]: 100 µg/mL; MIC [24]: > 100 µg/mL; MIC [25]: 100 µg/mL; MIC [26]: > 100 µg/mL; MIC [27]: 100 µg/mL; MIC [28]: > 100 µg/mL; MIC [29]: > 100 µg/mL; MIC [30]: > 100 µg/mL; MIC [31]: > 100 µg/mL; MIC [32]: 6.2 µg/mL
CC[C@H]1OC(=O)[C@H](C)C(=O)[C@H](C)[C@@H](O[C@@H]2O[C@H](C)C[C@H](N(C)C)[C@H]2O)[C@](C)(OC)C[C@@H](C)C2=N[C@@H](C)[C@H](C)N3C(=O)O[C@@]1(C)[C@H]3[C@H]2C [Example 11],0.39,0.39,> 100,0.39,0.39,0.39,> 100,0.39,0.1,0.39,0.2,0.05,0.01,> 100,0.39,25,0.39,25,6.2,25,MIC [14]: 0.005 µg/mL; MIC [22]: 25 µg/mL; MIC [23]: 12.5 µg/mL; MIC [24]: > 100 µg/mL; MIC [25]: > 100 µg/mL; MIC [26]: > 100 µg/mL; MIC [27]: > 100 µg/mL; MIC [28]: > 100 µg/mL; MIC [29]: > 100 µg/mL; MIC [30]: > 100 µg/mL; MIC [31]: > 100 µg/mL; MIC [32]: 6.2 µg/mL
CC[C@H]1OC(=O)[C@H](C)C(=O)[C@H](C)[C@@H](O[C@@H]2O[C@H](C)C[C@H](N(C)C)[C@H]2O)[C@](C)(OC)C[C@@H](C)C2=N[C@@H]3CN(CCc4ccccc4)C[C@@H]3N3C(=O)O[C@@]1(C)[C@H]3[C@H]2C [Example 23],0.2,0.2,> 100,0.2,0.2,0.2,> 100,0.78,0.05,0.2,0.05,≤ 0.005,≤ 0.005,> 100,0.78,50,0.05,12.5,6.2,25,MIC [14]: ≤ 0.005 µg/mL; MIC [22]: 100 µg/mL; MIC [23]: 100 µg/mL; MIC [24]: > 100 µg/mL; MIC [25]: > 100 µg/mL; MIC [26]: > 100 µg/mL; MIC [27]: 100 µg/mL; MIC [33]: 0.2 µg/mL; MIC [28]: 100 µg/mL; MIC [29]: > 100 µg/mL; MIC [30]: > 100 µg/mL; MIC [31]: > 100 µg/mL; MIC [32]: 0.39 µg/mL
CC[C@H]1OC(=O)[C@H](C)C(=O)[C@H](C)[C@@H](O[C@@H]2O[C@H](C)C[C@H](N(C)C)[C@H]2O)[C@](C)(OC)C[C@@H](C)C2=N[C@H](CO)CN3C(=O)O[C@@]1(C)[C@H]3[C@H]2C [Example 52],0.78,0.78,> 100,0.78,0.78,0.78,> 100,0.78,0.2,0.39,0.1,0.05,0.05,> 100,1.56,100,0.39,100,50,100,MIC [14]: 0.05 µg/mL; MIC [22]: > 100 µg/mL; MIC [23]: > 100 µg/mL; MIC [24]: > 100 µg/mL; MIC [25]: > 100 µg/mL; MIC [26]: > 100 µg/mL; MIC [27]: > 100 µg/mL; MIC [33]: 1.56 µg/mL; MIC [28]: > 100 µg/mL; MIC [29]: > 100 µg/mL; MIC [30]: > 100 µg/mL; MIC [31]: > 100 µg/mL; MIC [32]: 12.5 µg/mL
CC[C@H]1OC(=O)[C@H](C)C(=O)[C@H](C)[C@@H](O[C@@H]2O[C@H](C)C[C@H](N(C)C)[C@H]2O)[C@](C)(OC)C[C@@H](C)C2=NC[C@H](CSCc3ccccc3)N3C(=O)O[C@@]1(C)[C@H]3[C@H]2C [Example 66],0.1,0.1,> 100,0.2,0.1,0.2,> 100,0.2,0.02,0.2,0.02,0.01,0.01,> 100,0.39,25,0.39,12.5,12.5,25,MIC [14]: 0.01 µg/mL; MIC [22]: > 100 µg/mL; MIC [23]: > 100 µg/mL; MIC [24]: > 100 µg/mL; MIC [25]: 100 µg/mL; MIC [26]: > 100 µg/mL; MIC [27]: 100 µg/mL; MIC [33]: 0.39 µg/mL; MIC [28]: 100 µg/mL; MIC [29]: 100 µg/mL; MIC [30]: > 100 µg/mL; MIC [31]: > 100 µg/mL; MIC [32]: 0.39 µg/mL
C=CCN1CC2N=C3[C@H](C)C[C@@](C)(OC)[C@H](O[C@@H]4O[C@H](C)C[C@H](N(C)C)[C@H]4O)[C@@H](C)C(=O)[C@@H](C)C(=O)O[C@H](CC)[C@@]4(C)OC(=O)N(C2C1)[C@@H]4[C@H]3C (stereo partly drawn) [Example 116],0.78,0.78,> 100,0.78,0.39,0.78,> 100,0.78,0.2,0.39,0.2,0.05,≤ 0.005,> 100,0.78,50,0.39,100,50,> 100,MIC [22]: > 100 µg/mL; MIC [23]: > 100 µg/mL; MIC [24]: > 100 µg/mL; MIC [25]: 100 µg/mL; MIC [26]: > 100 µg/mL; MIC [27]: > 100 µg/mL; MIC [33]: 3.1 µg/mL; MIC [28]: > 100 µg/mL; MIC [29]: > 100 µg/mL; MIC [30]: > 100 µg/mL; MIC [31]: > 100 µg/mL; MIC [32]: 1.56 µg/mL

# — patent US6274715A, “Tricyclic erythromycin derivatives” (priority 1997, dated 2001)
